Assay results reported in US20150320783A1, “N-METHY[…] RELATED SUBSTANCES FOR USE IN TREATING / LESSENING THE OCCURRENCE OF HOT FLASHES RELATED TO MENOPAUSE” (DSM IP ASSETS B.V., priority 2013, published 2015).
Entries after “also recorded” stand apart in the source; their conditions may differ.

Legend:
Type in all cases: in vivo, rat
[1] = system: ovariectomized female rats; assay: CGRP-induced hot flash response (skin temperature) in ovariectomized rats
Text: (§1) The animals arrived at approximately 60 days of age, and were placed on specific diets throughout the study (to approximately 160 days of age). The diets were formulated and provided by Dyets Inc. (Bethlehem, Pa.) and are based on a modified AIN-93G diet. These diets were fed ad libitum. Two weeks after arrival, at approximately […] of age, the animals were ovariectomized, allowed to recover for three weeks, and then placed on defined diets. In the first study, these diets contained 0, 0.08, 0.48, 3.2, 18.5, 185, or 3700 μg/kg/day of NMS dihydrochloride (FIG. 2). In the second, follow-up study, the diets contained no NMS (control), NMS oxalate (18.5 or 55.5 μg/kg/d), or milled Zanthoxylum seed in quantities that supplied NMS-glucoside at equivalent doses (18.5 or 55.5 μg/kg/d; FIG. 8). The NMS and NMS-glucoside content was verified using liquid chromatography with mass spectrometric etection. Extraction methods were similar to those of Yanase et al., 2010.
(§2) All diets were fed for 2 weeks prior to the first behavioral assessment (open field). Positive control animals received a 5.0 mm subcutaneous silastic capsule implant packed with a crystalline 17β-estradiol and cholesterol mixture (25%, 0.058 inch inner diameter, 0.077 inch outer diameter; Dow Corning #508-006). Animals were then examined for locomotor activity (open field) and in two behavioral assays to assess mood (elevated plus maze and swim test) separated by two weeks in-between each assay. Two weeks after the final behavioral task (swim test), the animals were anesthetized and their physiological response to an experimentally-induced hot flash was tested. After the temperature monitoring was complete, tissue was harvested while the animals were still anesthetized.
Two weeks after arrival, each animal was anesthetized via isoflurane inhalation and the dorsal mid-lumbar area was shaved and swabbed with surgical scrub, iodine and alcohol. The animal was then placed on a warm heat pad covered by a sterile cloth/pad in ventral recumbency with tail towards surgeon. A 2-3 cm dorsal midline skin incision was made halfway between the caudal edge of the ribcage and the base of the tail. A single transverse incision of 5.5-10 mm long was made into the muscle wall on both the right and left sides approximately ⅓ of the distance between the spinal cord and the ventral midline. The ovary and the oviduct were exteriorized through the muscle wall. A hemostat was clamped around the uterine vasculature between the oviduct and uterus and the uterine vasculature was ligated with dissolvable suture. Each ovary and part of the oviduct was removed with single cuts through the oviducts near the ovary. The hemostat was removed, and the remaining tissue replaced into the peritoneal cavity. The ovary on the other side was removed in a similar manner. The muscle incision is not sutured. Sterile wound clips were used to close the skin incision. Animals were monitored daily for signs of infection or morbidity.
Animals were anesthetized with intraperitoneal co-injection of urethane (750 mg/kg) and α-chloralose (60 mg/kg). […] Thermistor probes (ADI Instruments, Colorado Springs, Colo.) were taped to the plantar surfaces of one hind foot. Forty minutes later, after anesthesia-induced hypothermia had stabilized, the basal skin temperature was recorded. Temperature monitoring then occurred at 5-second intervals throughout the remainder of the experiment. Calcitonin gene related peptide (CGRP; 10 μg/kg, i.v.) dissolved in saline was then injected via the tail vein. A maximum of eight animals were tested at the same time due to limitations on instrumental throughput. Cage mates were always tested together in order to avoid the stresses of single-housing and the potential stress hormone effects on body temperature. Therefore only four groups could be tested within any one given day.

plasma estradiol = assay: Circulating (plasma) estradiol levels in ovariectomized female rats; settings: for plasma estradiol: first study, FIG. 5, dietary NMS supplementation, estradiol supplemented animals
Text: as §1, §2

[2] = Body weight of ovariectomized female rats; settings: for body weight: FIG. 6A, dietary NMS vs control diet, estradiol implanted, throughout the experiment
Text: as §1, §2

[3] = system: ovariectomized female rats; assay: Uterine weight (uterotrophic effect) in ovariectomized female rats; settings: vs ovariectomized controls; for uterine weight: first study, FIG. 6D, after 80 days of supplementation; for uterine weight / uterine growth: follow-up study, FIG. 11A
Text: as §1, §2

[4] = system: ovariectomized female rats; assay: Behavioral measures of mood (open field, elevated plus maze, swim test)
Text: as §2, with “After the temperature monitoring was complete, tissue was harvested while the animals were still anesthetized.” left out
Animals were tested in the open field to measure overall locomotor activity and basal anxiety state. […] Rats were placed in the middle of the chamber and behavior in the open field was recorded for thirty minutes with a digital camera and measured by software (AnyMaze, Stoelting Co., Inc.). The following parameters were analyzed: a) total distance traveled; b) time in center; c) center entries; and d) number of fecal boli excreted.
Animals were tested on the elevated plus maze to measure anxiety-related behavior. […] Each rat was placed in the central platform facing one of the open arms, and its behavior was recorded during a 5-min testing period with video capture software (AnyMaze). […]

[5] = system: ovariectomized female rats; assay: Forced swim test (depressive-like behaviors); settings: first study, FIG. 7A; estradiol implanted
Method: Each rat was examined in the swim test for depressive-like behaviors. The test was performed over two consecutive days since it is a measure of an adaptive response to a perceived inescapable situation. The first test establishes to the animal that it is an inescapable situation, and the second test measures the animal's degree of passive coping derived from an unwillingness to maintain effort in an inescapable situation. Typical antidepressants limit the amount of passive coping (immobility) and promote the amount of active coping (swimming/climbing). On day one (0800 h to 1300 h), animals were acclimated to the test by placing them in a plexiglass cylindrical container (45 cm×20 cm) filled with 30 cm of fresh water (25° C.) for fifteen minutes, after which they were toweled dried and returned to their home cage. On day two (24 hrs later) the test was performed for a total swim time of five minutes, after which the rats were toweled dried and returned to their home cage. Both trials were recorded by a digital video camera was secured to the ceiling above the cylinders and connected to a laptop. Total time spent swimming and immobile was measured real-time by behavioral software (Anymaze, Stoelting Co.), and scored post hoc by a blinded experimenter from captured video. […]

[6] = first study, representative data FIG. 3, 0.48 ug/kg/d NMS through diet vs untreated controls
[7] = first study, dietary NMS, dose not stated, estradiol subcutaneous, no dietary NMS (positive control)
[8] = first study, dietary NMS, dose not stated, estradiol subcutaneous, no dietary NMS (positive control), CGRP 10 μg/kg i.v.
[9] = follow-up study, FIG. 9, milled Zanthoxylum seed supplying NMS-glucoside 18.5 or 55.5 μg/kg/d, NMS oxalate 18.5 or 55.5 μg/kg/d, or estradiol, vs untreated controls

| SMILES | basal skin temperature ([1]; first study, FIG. 3 and 4, 18.5 ug/kg/d NMS through diet vs untreated controls) | CGRP response above calculated baseline (skin temperature) [1, 6] | basal skin temperature [1, 6] | CGRP response above calculated baseline (skin temperature) ([1]; first study, representative data FIG. 3, 18.5 ug/kg/d NMS through diet vs untreated controls) | basal (baseline) skin temperature [1, 7] | CGRP-induced hot flash response [1, 8] | CGRP-induced hot flash response [1, 9] | plasma estradiol (plasma estradiol) | non-uterine estradiol secretion (plasma estradiol; results summary) | body weight ([2]; first study) | weight change as a percentage of original weight ([2]; first study, FIG. 6B and C, throughout or at the end of the study) | uterine weight [3] | uterine weight / uterine growth [3] | behavioral measures of mood ([4]; first study, FIG. 7, dietary NMS) | behavioral measures of mood / mood-related behaviors ([4]; follow-up study, FIG. 10) | body weight throughout the experiment ([2]; follow-up study, FIG. 11B, estradiol implanted vs all other groups) | time immobile during the second session of the forced swim test [5] |
| --- | --- | --- | --- | --- | --- | --- | --- | --- | --- | --- | --- | --- | --- | --- | --- | --- | --- |
| CNCCc1c[nH]c2ccc(O)cc12 [NMS, N-methylserotonin] | lower basal temperatures; also recorded: decreased basal skin temperature | lower CGRP responses | lower basal temperatures | lower CGRP responses | reduced baseline skin temperature | blunted the CGRP-induced hot flash response | blunted the CGRP-induced hot flash response | increased plasma estradiol in a dose-dependent manner | tripled | did not alter body weight | not different between dietary treatments | did not alter uterine weight | did not alter uterine weight | did not alter behavioral measures of mood | did not alter behavioral measures of mood |  |  |
| CNCCc1c[nH]c2ccc(O[C@@H]3O[C@H](CO)[C@@H](O)[C@H](O)[C@H]3O)cc12 [NMS-glucoside, N-methylserotonin 5-O-β-glucoside] |  |  |  |  |  |  | blunted the CGRP-induced hot flash response |  |  |  |  |  |  |  |  |  |  |
| C[C@]12CC[C@@H]3c4ccc(O)cc4CC[C@H]3[C@@H]1CC[C@@H]2O [estradiol, 17β-estradiol, reference compound] |  |  |  |  | lowest basal temperatures | lowest responses to CGRP | blunted the CGRP-induced hot flash response | highest levels of plasma estradiol |  | significantly lower body weight |  | significantly higher uterine weights | significantly higher uterine weights |  |  | significantly lower body weight | spent less time immobile |
